# Source: patent US7759356B2, “Arylindenopyridines and arylindenopyrimidines and related therapeutic and prophylactic methods” (Janssen Pharmaceutica, N.V., priority 2002, dated 2010)
# How the values were obtained:
# [1] = molecular target: T1, human adenosine A2a receptors (Homo sapiens, UniProt P29274); experiment: Adenosine A2a receptor functional assay (antagonist mode, cAMP-inducible beta-galactosidase reporter, CHO-K1 cells, 50 nM NECA); format: cell-based; settings: read-out: Ki A2a antagonist function
# T1 construct: expressed in transfected cells; host or cells: CHO-K1 cells with cAMP-inducible beta-galactosidase reporter gene
# T1 sequence (P29274 whole entry): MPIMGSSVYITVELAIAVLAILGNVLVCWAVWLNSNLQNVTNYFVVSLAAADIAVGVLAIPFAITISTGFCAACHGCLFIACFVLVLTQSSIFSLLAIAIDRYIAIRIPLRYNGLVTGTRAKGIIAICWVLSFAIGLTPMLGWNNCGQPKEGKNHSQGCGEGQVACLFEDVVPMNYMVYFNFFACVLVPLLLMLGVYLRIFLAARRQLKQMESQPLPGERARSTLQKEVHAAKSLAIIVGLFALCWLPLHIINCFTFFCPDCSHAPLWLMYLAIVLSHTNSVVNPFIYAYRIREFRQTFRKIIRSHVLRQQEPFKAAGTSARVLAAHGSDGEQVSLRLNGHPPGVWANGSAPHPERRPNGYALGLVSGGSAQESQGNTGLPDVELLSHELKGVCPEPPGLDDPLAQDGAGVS
# Protocol: Adenosine A2a Receptor Functional Assay
# CHO—K1 cells overexpressing human adenosine A2a receptors and containing cAMP-inducible beta-galactosidase reporter gene were seeded at 40-50K/well into 96-well tissue culture plates and cultured for two days. On assay day, cells were washed once with 200 μL assay medium (F-12 nutrient mixture/0.1% BSA). For agonist assay, adenosine A2a receptor agonist NECA was subsequently added and cell incubated at 37° C., 5% CO2 for 5 hrs before stopping reaction. In the case of antagonist assay, cells were incubated with antagonists for 5 minutes at R.T. followed by addition of 50 nM NECA. Cells were then incubated at 37° C., 5% CO2 for 5 hrs before stopping experiments by washing cells with PBS twice. 50 μL 1× lysis buffer (Promega, 5× stock solution, needs to be diluted to 1× before use) was added to each well and plates frozen at −20° C. For β-galactosidase enzyme colorimetric assay, plates were thawed out at room temperature and 50 μL 2× assay buffer (Promega) added to each well. Color was allowed to develop at 37° C. for 1 h or until reasonable signal appeared. Reaction was then stopped with 150 μL 1M sodium carbonate. […] Data was analyzed in Microsoft Excel and GraphPad Prism programs.
# A1 = molecular target: T2, A1 (Homo sapiens, UniProt P30542); experiment: A1 antagonist function; format: cell-based
# T2 sequence (P30542 1-326): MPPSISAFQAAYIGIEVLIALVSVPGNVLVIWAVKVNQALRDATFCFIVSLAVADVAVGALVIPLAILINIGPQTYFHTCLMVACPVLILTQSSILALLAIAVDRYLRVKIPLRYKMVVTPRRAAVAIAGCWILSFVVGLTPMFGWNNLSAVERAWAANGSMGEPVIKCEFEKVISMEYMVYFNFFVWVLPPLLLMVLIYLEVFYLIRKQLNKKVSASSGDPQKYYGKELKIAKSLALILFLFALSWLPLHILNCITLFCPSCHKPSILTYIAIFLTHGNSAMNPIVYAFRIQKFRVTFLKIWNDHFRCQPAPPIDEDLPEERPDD
# [2] = molecular target: T3, human A2a adenosine receptor (Homo sapiens, UniProt P29274); experiment: Ligand binding assay for adenosine A2a receptor ([3H]CGS21680, HEK293 membranes); settings: radioligand [3H]CGS21680, HEK293 plasma membrane
# T3 construct: purchased PerkinElmer RB-HA2a; host or cells: HEK293 cell plasma membranes
# T3 sequence (P29274 whole entry): as the sequence (P29274 whole entry) above
# Protocol: Ligand Binding Assay for Adenosine A2a Receptor
# Ligand binding assay of adenosine A2a receptor was performed using plasma membrane of HEK293 cells containing human A2a adenosine receptor (PerkinElmer, RB-HA2a) and radioligand [^3H]CGS21680 (PerkinElmer, NET1021). Assay was set up in 96-well polypropylene plate in total volume of 200 μL by sequentially adding 20 μL1:20 diluted membrane, 130 μL assay buffer (50 mM Tris.HCl, pH7.4 10 mM MgCl2, 1 mM EDTA) containing [^3H] […] Nonspecific binding was determined by […] NECA. Reaction was carried out at room temperature for 2 hours before filtering through 96-well GF/C filter plate pre-soaked in 50 mM Tris.HCl, pH7.4 containing 0.3% polyethylenimine. Plates were then washed 5 times with cold 50 mM Tris.HCl, pH7.4, dried and sealed at the bottom. Microscintillation fluid 30 μl was added to each well and the top sealed. Plates were counted on Packard Topcount for [^3H]. Data was analyzed in Microsoft Excel and GraphPad Prism programs.
Ki [1] [nM],Ki (A1) [nM],Ki [2] [nM],SMILES
0.126,0.91,0.05,Nc1nc(-c2ccco2)c2c(n1)-c1cccc(N)c1C2=O [Compound 20]
,,31.6,COc1ccc(-c2nc(N)nc3c2C(=O)c2ccccc2-3)cn1 [Compound 30]
0.34,0.021,0.175,CC(O)C(O)c1cccc2c1-c1nc(N)nc(-c3ccccc3)c1C2=O (stereo not drawn) [Compound 33]
,,2720,"CS(=O)(=O)c1nc(N)nc2c1C(=O)c1ccccc1-2 [Compound 40, 2-Amino-4-methanesulfonyl-indeno[1,2-d]pyrimidin-5-one]"
,,80.2,CN1CCN(Cc2cccc3c2C(=O)c2c(-c4ccccc4)nc(N)nc2-3)CC1 [Compound 50]
11.7,61,30.6,Nc1nc(-c2ccccc2)c2c(n1)-c1cccc(CN3CCN(CCO)CC3)c1C2=O [Compound 58]
,> 500,,"CN(C)CCN(C)C(=O)c1c(N)nc(-c2ccco2)c2c1-c1ccccc1C2=O [Compound 77, 9H-indeno[2,1-c]pyridine-4-carboxylic acid, 3-amino-1-furan-2-yl-9-oxo-, (2-dimethylamino-ethyl)-methyl-amide]"
,> 500,,"CC(CN(C)C)NC(=O)c1c(N)nc(-c2ccco2)c2c1-c1ccccc1C2=O (stereo not drawn) [Compound 78, 9H-indeno[2,1-c]pyridine-4-carboxylic acid, 3-amino-1-furan-2-yl-9-oxo-, (2-dimethylamino-1-methyl-ethyl)-amide]"
,,64,CN(C)CCOC(=O)c1c(N)nc(-c2ccsc2)c2c1-c1ccccc1C2=O [Compound 93]
10.1,52.5,48.5,C[C@@H](CN(C)C)OC(=O)c1c(N)nc(-c2ccco2)c2c1-c1ccccc1C2=O [Compound 96]
